Test [1] has as its target T1, α1β3γ2L GABAAR (Mus musculus, UniProt P62812).
T1 construct: expressed in transfected cells; host or cells: HEK 293 cells (ATCC CRL-1573)
Description: Whole-cell voltage-clamp electrophysiology, wild-type α1β3γ2L GABAARs expressed in HEK cells. It counts as cell-based, murine. The settings on record: for mean (weighted) decay time (τw) of GABA current: 1 nM PS analogue, 30 μM GABA. As for the experimental part:
(§1) HEK 293 cells (ATCC Cat# CRL‐1573, RRID:CVCL_0045) were maintained and transfected under standard conditions. In brief, cells were grown in monolayers in Dulbecco's modified Eagle's medium supplemented with 10% v/v fetal calf serum, 100 U·ml^−1 of penicillin‐G and 100 μg·ml^−1 of streptomycin and incubated at 37°C in humidified 95% air/5% CO2.
(§2) Before transfection, HEK cells were plated onto 22 mm of glass coverslips (VWR) coated in poly‐L‐lysine (Sigma). Cells were transfected with α1 (wild‐type [wt] or mutant [mut]), β3 (wt), γ2L (wt or mut) and enhanced green fluorescent protein (eGFP) in an equimolar ratio (1:1:1:1), using a calcium‐phosphate precipitation protocol. The transfection solution was prepared from 4 μg of cDNA per coverslip, 20 μl of 340 mM of CaCl2 and 24 μl of 2× HEPES‐buffered saline (HBS) (50 mM of HEPES, 280 mM of NaCl and 2.8 mM of Na2HPO4). Cells were selected for electrophysiology after 16–30 h based on their morphology and moderate GFP fluorescence.
(§3) Coverslips with transfected HEK cells were transferred into a recording chamber on a Nikon Eclipse FN1 microscope with a 470‐nm LED for GFP fluorescence. Cells were continuously perfused with Krebs solution containing (mM) 140 NaCl, 4.7 KCl, 1.2 MgCl2, 2.52 CaCl2, 11 glucose and 5 HEPES (pH 7.4). Patch pipettes (thin‐walled filamented borosilicate glass capillaries; TW150F‐4; WPI, USA; 3–4 MΩ) were filled with an intracellular solution containing (mM) 140 CsCl, 2 NaCl, 2 MgCl2, 5 EGTA, 10 HEPES, 0.5 CaCl2, 2 Na‐ATP and 0.5 Na‐GTP (pH 7.2). Drugs were applied to cells using a Y‐tube delivery system (Mortensen & Smart, [2007]), with the PS analogues pre‐applied 10–12 s before co‐application with GABA.
(§4) HEK cells were voltage clamped at −30 mV using an Axopatch 200B amplifier (Molecular Devices, USA), and whole‐cell currents were filtered at 5 kHz (−36 dB), digitised at 50 kHz via a Digidata 1322A (Molecular Devices) and recorded to a Dell Optiplex 990 using Clampex 10.2 (Molecular Devices). Series resistance was compensated at 60%–70%, and only data with <20% deviation in series resistance would be included in subsequent analyses.
(§5) Weighted time constants for the decay phase (τw) were calculated by fitting a biexponential curve to the current decay waveform and applying the following equation: τw=A1.τ1+A2.τ2/A1+A2, where τ1 and τ2 represent time constants for the two exponential components of the decay phase and A1 and A2 are their relative area contributions.
(§6) Current responses from voltage‐clamp experiments were measured, and decays fitted using ClampFit 10.2 (Molecular Devices) to determine the respective time constants. In Origin, data were plotted as concentration–response curves, and curves fitted using the following inhibition equation: I/Imax=1−B^n/IC50^n+B^n, where I is the current response, B is the concentration of the PS analogue, n is the slope coefficient and IC50 is the analogue concentration producing 50% inhibition of GABA current (inhibitory potency). Potency values are presented as pIC50 with SEM values. The mean was transformed into a molar concentration by pIC50 = −log IC50. Other data are represented as the mean ± SEM.

The target of test [2] is T2, α1β3γ2L GABAAR (Mus musculus, UniProt P22723+P62812+P63080).
T2 construct: expressed in transfected cells; host or cells: HEK 293 cells (ATCC CRL-1573)
T2 sequence (P62812 28-455): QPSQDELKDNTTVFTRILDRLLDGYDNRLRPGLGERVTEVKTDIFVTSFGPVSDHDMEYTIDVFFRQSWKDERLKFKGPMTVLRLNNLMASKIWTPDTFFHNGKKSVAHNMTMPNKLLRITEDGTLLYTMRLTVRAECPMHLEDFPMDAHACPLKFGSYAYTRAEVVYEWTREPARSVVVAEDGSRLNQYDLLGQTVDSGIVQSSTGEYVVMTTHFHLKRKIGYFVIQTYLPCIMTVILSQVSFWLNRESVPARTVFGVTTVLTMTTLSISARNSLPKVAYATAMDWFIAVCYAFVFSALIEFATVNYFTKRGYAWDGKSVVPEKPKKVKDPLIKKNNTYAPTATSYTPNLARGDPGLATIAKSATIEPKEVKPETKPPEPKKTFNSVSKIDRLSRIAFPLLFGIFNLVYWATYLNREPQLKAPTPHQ
T2 sequence (P63080 26-473 partner): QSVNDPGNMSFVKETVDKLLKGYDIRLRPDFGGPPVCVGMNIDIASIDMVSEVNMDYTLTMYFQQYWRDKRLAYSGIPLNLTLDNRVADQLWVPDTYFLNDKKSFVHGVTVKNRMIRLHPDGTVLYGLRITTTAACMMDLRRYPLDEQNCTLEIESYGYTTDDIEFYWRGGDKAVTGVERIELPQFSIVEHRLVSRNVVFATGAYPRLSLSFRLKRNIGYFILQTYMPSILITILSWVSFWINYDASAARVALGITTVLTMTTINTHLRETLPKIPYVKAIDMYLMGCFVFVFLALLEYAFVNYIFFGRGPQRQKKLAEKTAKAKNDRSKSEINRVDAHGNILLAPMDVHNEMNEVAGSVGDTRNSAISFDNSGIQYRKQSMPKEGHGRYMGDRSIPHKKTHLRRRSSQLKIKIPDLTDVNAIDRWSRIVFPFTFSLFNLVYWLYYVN
T2 sequence (P22723 39-474 partner): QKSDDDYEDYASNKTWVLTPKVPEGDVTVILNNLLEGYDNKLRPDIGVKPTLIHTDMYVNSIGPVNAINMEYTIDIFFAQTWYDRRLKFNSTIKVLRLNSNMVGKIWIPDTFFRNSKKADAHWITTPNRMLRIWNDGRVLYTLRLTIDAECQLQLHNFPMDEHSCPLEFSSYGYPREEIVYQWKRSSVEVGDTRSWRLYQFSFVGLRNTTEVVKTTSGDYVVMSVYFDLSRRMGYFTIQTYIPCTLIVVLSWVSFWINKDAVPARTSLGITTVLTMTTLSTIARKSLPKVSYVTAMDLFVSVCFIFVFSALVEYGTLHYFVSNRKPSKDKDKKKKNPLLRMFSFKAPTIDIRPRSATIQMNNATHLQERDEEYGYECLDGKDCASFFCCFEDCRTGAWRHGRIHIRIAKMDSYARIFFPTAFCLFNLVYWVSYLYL
The test is described as above. The format is cell-based, murine. As for the experimental part: as §1, §2, §3, §4, §5, §6

The target in test [3] is T3, α1F295A, F399Aβ3γ2L GABAAR (Mus musculus, UniProt P22723+P62812+P63080, F322A/F426A).
T3 construct: expressed in transfected cells; host or cells: HEK 293 cells (ATCC CRL-1573)
T3 sequence (P62812 28-455 F322A/F426A): as the sequence (P62812 28-455) above, with F295A, F399A counted along it
T3 sequence (P63080 26-473 partner): as the sequence (P63080 26-473 partner) above
T3 sequence (P22723 39-474 partner): as the sequence (P22723 39-474 partner) above
Description: Whole-cell voltage-clamp electrophysiology, mutant α1F295A,F399Aβ3γ2L in HEK cells. The format is cell-based, murine. As for the experimental part:
as §1, §2, §3, §4, §5, §6

Test [4] has as its target T4, α1F399Aβ3γ2L GABAAR (Mus musculus, UniProt P22723+P62812+P63080, F426A).
T4 construct: expressed in transfected cells; host or cells: HEK 293 cells (ATCC CRL-1573)
Description: Whole-cell voltage-clamp electrophysiology, mutant α1F399Aβ3γ2L in HEK cells. It counts as cell-based, murine. The protocol: as §1, §2, §3, §4, §5
Current responses from voltage‐clamp experiments were measured, and decays fitted using ClampFit 10.2 (Molecular Devices) to determine the respective time constants. […]

Test [5] deals with T5, α1β3γ2LV262F GABAAR (Mus musculus, UniProt P62812).
T5 construct: expressed in transfected cells; host or cells: HEK 293 cells (ATCC CRL-1573)
T5 sequence (P62812 28-455): as the sequence (P62812 28-455) above
T5 sequence (P63080 26-473 partner): as the sequence (P63080 26-473 partner) above
T5 sequence (P22723 39-474 V300F partner): as the sequence (P22723 39-474 partner) above, with V262F counted along it
Briefly: Whole-cell voltage-clamp electrophysiology, highly desensitising mutant α1β3γ2LV262F in HEK cells. It counts as cell-based, murine. As for the experimental part:
as §1, §2, §3, §4, §5, §6

Test [6] addresses T1, α1β3γ2L GABAAR. Briefly: Kinetic modelling and waveform fitting of GABA currents (ChanneLab). Also noted: species or system murine. The settings on record: waveform fit. The protocol:
We used ChanneLab (Version 2.2; Synaptosoft) to build relatively simple kinetic models of the GABAAR. To explore the functional behaviour of PS analogues (compounds) 5 and 6, we incorporated concentration‐dependent PS analogue‐bound states into the model. Simulated currents were generated in ChanneLab and explored at different GABA and PS analogue concentrations. These were evaluated against GABA currents generated under experimental conditions, using the waveform fitting function in ChanneLab. Rate constants connecting receptor states were determined initially empirically with reference to previously published values and varied individually to optimise the fit to the data (seed values) prior to using waveform fitting and Runge–Kutta numerical integration (RK5) to eventually simulate the experimental GABA current profiles with 50 iterations. GABA‐activated membrane currents were fitted over their full timecourse of 20 s.
To investigate, simplified GABAAR models were constructed, incorporating some or all the following receptor states: an unbound closed state (R); GABA‐bound closed ‘composite’ state (RA) that incorporates one or more preactivation states that are not explicitly indicated or a closed (RA) and separate preactivated (RfA) state; a GABA‐bound activated state (RA*); and a desensitised state (RD) accessed via the receptor's activated state. These simple models enable the generation of simulated GABA‐dependent currents, with values for the rate constants determined initially empirically in broad accord with published parameters and manually adjusted to provide seed values before performing waveform fitting with unconstrained rate constants (Figure 8a).
RA* is the activated receptor open channel before moving to a desensitised state RD.

Test [7] addresses T6, α1V296Lβ3γ2L GABAAR (Mus musculus, UniProt P22723+P62812+P63080, V323L).
T6 construct: expressed in transfected cells; host or cells: HEK 293 cells (ATCC CRL-1573)
Briefly: Whole-cell voltage-clamp electrophysiology, minimally desensitising mutant α1V296Lβ3γ2L in HEK cells. It counts as cell-based, murine. The protocol: as §1, §2, §3, §4, §5, §6

In test [8] the target is T7, α1F295Aβ3γ2L GABAAR (Mus musculus, UniProt P22723+P62812+P63080, F322A).
T7 construct: expressed in transfected cells; host or cells: HEK 293 cells (ATCC CRL-1573)
T7 sequence (P62812 28-455 F322A): as the sequence (P62812 28-455) above, with F295A counted along it
T7 sequence (P63080 26-473 partner): as the sequence (P63080 26-473 partner) above
T7 sequence (P22723 39-474 partner): as the sequence (P22723 39-474 partner) above
Briefly: Whole-cell voltage-clamp electrophysiology, mutant α1F295Aβ3γ2L in HEK cells. The format is cell-based, murine. As for the experimental part:
as §1, §2, §3, §4, §5, §6

For test [9], the target named is T8, α1V296Lβ3γ2L GABAAR (Mus musculus, UniProt P62812, V323L).
T8 construct: expressed in transfected cells; host or cells: HEK 293 cells (ATCC CRL-1573)
T8 sequence (P62812 28-455 V323L): as the sequence (P62812 28-455) above, with V296L counted along it
T8 sequence (P63080 26-473 partner): as the sequence (P63080 26-473 partner) above
T8 sequence (P22723 39-474 partner): as the sequence (P22723 39-474 partner) above
Description: Whole-cell voltage-clamp electrophysiology, minimally desensitising mutant α1V296Lβ3γ2L in HEK cells. The format is cell-based, murine. The protocol: as §1, §2, §3, §4, §5, §6

Setting [10] is: Decay inhibition (pIC50), potency for reducing GABA current weighted decay time constant, 30 μM GABA.
Setting [11] is: Peak inhibition (pIC50), peak current evoked by 30 μM GABA, analogue pre-applied 10–12 s and co-applied.
Where [12] appears, read: Steady-state inhibition (pIC50), GABA current after 20 s of 30 μM GABA (near steady state).
The mark [13] stands for this setting: Decay inhibition (pIC50), GABA current weighted decay time constant.
The mark [14] stands for this setting: Steady-state inhibition (pIC50), 30 μM GABA, 20 s.
Setting [15] is: Decay inhibition (IC50), GABA current weighted decay time constant.
[16] abbreviates: steady-state current after 20 s of 1 mM GABA.

What is called IC50 is the concentration needed to halve the response being measured.

Some results are limits rather than exact numbers.

T1 sequence (P62812 28-455): as the sequence (P62812 28-455) above
T1 sequence (P63080 26-473 partner): as the sequence (P63080 26-473 partner) above
T1 sequence (P22723 39-474 partner): as the sequence (P22723 39-474 partner) above
T6 sequence (P62812 28-455 V323L): as the sequence (P62812 28-455) above, with V296L counted along it
T6 sequence (P63080 26-473 partner): as the sequence (P63080 26-473 partner) above
T6 sequence (P22723 39-474 partner): as the sequence (P22723 39-474 partner) above
T4 sequence (P62812 28-455 F426A): as the sequence (P62812 28-455) above, with F399A counted along it
T4 sequence (P63080 26-473 partner): as the sequence (P63080 26-473 partner) above
T4 sequence (P22723 39-474 partner): as the sequence (P22723 39-474 partner) above

In the case of `CC12CCC(OS(=O)(=O)O)CC1=CCC1C2CCC2(C)C(C(=O)CBr)CCC12` (stereo not drawn) [compound 2], the “mean (weighted) decay time (τw) of GABA current” value in [1] is on record as 3.8 ± 0.2 s. Moreover, the IC50 in test [2] (Decay inhibition (IC50), potency for reducing GABA current weighted decay time constant, 30 μM GABA) was 0.88 µM; in [2] (setting [10]) it was 0.875 µM; in [2] (Peak inhibition (IC50), peak current evoked by 30 μM GABA, analogue pre-applied 10–12 s and co-applied) it was 2.7 µM; in [2] (setting [11]), 2.65 µM; in test [2] (setting [12]), 0.279 µM.

`C[C@]12CC[C@H](OS(=O)(=O)O)CC1=CCC1C2CC[C@@]2(C)C1CC[C@@H]2C(=O)Cn1cccn1` (stereo partly drawn) [compound 6]: the half-maximal inhibitory concentration (IC50) was 1.23 µM in [3] (setting [13]); 4.2 µM in [3] (Steady-state inhibition (IC50), 30 μM GABA, 20 s); 4.15 µM in test [3] (setting [14]); 1.49 µM in test [4] (setting [13]); 7.29 µM in test [4] (setting [14]); 2.88 µM in test [5] (setting [13]). In addition, the IC50 in test [5] (Steady-state inhibition (pIC50), steady-state GABA current) was 25.1 µM; in [2] (setting [10]) it was 1.66 µM; in [2] (setting [11]), 220 ± 14.6 µM; in test [2] (Steady-state inhibition (IC50), GABA current after 20 s of 30 μM GABA (near steady state)), approximately 1 µM; in [2] (setting [12]), 1.13 µM; in [7] (setting [15]) it was more than 100 µM. The IC50 was more than 100 µM in [7] (Steady-state inhibition (IC50), steady-state GABA current); 1.4 µM in test [8] (setting [15]); 1.35 µM in [8] (setting [13]); 4.51 µM in test [8] (setting [14]). Also, the “mean (weighted) decay time (τw) of GABA current” value in test [1] is listed as 3.8 ± 0.2 s. In addition, the “fold difference in current decay potency, compound 6 vs compound 5” value in test [1] (wild-type α1β3γ2L, decay IC50 of 5 vs 6) is recorded as 70 fold. Also, the “rate constant k4, Model (c)” value in [6] (Model (c): binding to RA (RAP) and RD (RDP), 30 μM GABA) was 234000 M⁻¹ s⁻¹. Also, in test [6] (Model (c), 30 μM GABA), the “rate constant k2, Model (c)” value was determined as 129000 M⁻¹ s⁻¹. The “rate constant k‐4, Model (c)” value in [6] (Model (c), 30 μM GABA) was found to be 184 s⁻¹. The “rate constant k2, Model (d)” value in test [6] (Model (d): binding to preactivated state RfA (RfAP) and RD) worked out at 173000 M⁻¹ s⁻¹. In addition, in [6] (Model (d)), the “rate constant k4, Model (d)” value was 184000 M⁻¹ s⁻¹. The “rate constant k‐4, Model (d)” value in test [6] (Model (d)) stood at 307 s⁻¹.

As for `NCCCC(=O)O` [GABA, γ‐Aminobutyric acid], the “mean weighted decay time constant (τw) of GABA current” value in test [5] (1 mM GABA, 20 s) turned out to be 2.3 ± 0.28 s; in [1] (wild-type α1β3γ2L, 1 mM GABA, 20 s), 3.7 ± 0.17 s; in [9] (1 mM GABA, 20 s) it was 7.4 ± 1.3 s. In addition, the “extent of macroscopic desensitisation” value stood at 89 ± 1.3% in [5] (setting [16]); 68 ± 1.6% in test [1] (wild-type α1β3γ2L, steady-state current after 20 s of 1 mM GABA); 39 ± 6.0% in test [9] (setting [16]).

Source of the values: publication PMC10952582, “Pregnenolone sulfate analogues differentially modulate GABAA receptor closed/desensitised states” (British Journal of Pharmacology, 2023).
